One molecule from patent US20150315554A1, “CELL LINES EXPRESSING CFTR AND METHODS OF USING THEM” (Chromocell Corporation, priority 2009, published 2015) can be followed below.

pEC50: −log10 of the molar value. “And” between values parts separate entries of the source, which are not always exact repeats. Equal values may be shown once.

The pEC50 is the negative decadic logarithm of the EC50, by convention in mol/L. Lower therefore signals a large EC50.

In this test the test system is human CFTR. In words: high-throughput compatible fluorescence membrane potential assay, forskolin dose-response in stable CFTR-expressing CHO cell lines. It is filed as cell-based. The note with it: stable CFTR-expressing CHO cell line, 15,000 cells/well, 384-well plate, membrane potential dye. How it is done:
CHO cell lines stably expressing CFTR were maintained under standard cell culture conditions in Ham's F12 medium supplemented with 10% fetal bovine serum and glutamine. On the day before assay, the cells were harvested from stock plates and plated into black clear-bottom 384 well assay plates at a density that is sufficient to attain 90% confluency on the day of the assay. The assay plates were maintained in a 37° C. cell culture incubator under 5% CO2 for 22-24 hours. The media was then removed from the assay plates and blue membrane potential dye (Molecular Devices Inc.) diluted in loading buffer (137 mM NaCl, 5 mM KCl, 1.25 mM CaCl2, 25 mM HEPES, 10 mM glucose) was added and allowed to incubate for 1 hour at 37° C. The assay plates were then loaded on a fluorescent plate reader (Hamamatsu FDSS) and a cocktail of forskolin and IBMX dissolved in compound buffer (137 mM sodium gluconate, 5 mM potassium gluconate, 1.25 mM CaCl2, 25 mM HEPES, 10 mM glucose) was added. For forskolin dose-response experiments, cells of the produced stable CFTR-expressing cell lines, plated at a density of 15,000 cells/well in a 384-well plate were challenged with increasing concentration of forskolin, a known CFTR agonist. The cellular response as a function of changes in cell fluorescence was monitored over time by a fluorescent plate reader (Hamamatsu FDSS).

In the case of `C=C[C@@]1(C)CC(=O)[C@]2(O)[C@@]3(C)[C@@H](O)CCC(C)(C)[C@@H]3[C@H](O)[C@H](OC(C)=O)[C@@]2(C)O1` [forskolin], the pEC50 was 6.59 and ~6.60.
